Assay results: US20250186364A1, “COMBINATION OF ANTISPASMODIC AND ANESTHETIC AGENTS FOR TOPICAL PRODUCTS AND THEIR METHOD OF USE” (priority 2023, published 2025)
“Also recorded” adds a separate entry of the source.

Tests used:
[1] = test system: mouse extensor digitorum longus muscles; assay: Isolated mouse muscle contraction study
Experimental: FIG. 4 is a schematic diagram of a validated isolated mouse muscle contraction study. Muscles were anchored at one end to the chamber floor and connected at the other end to a force transducer. After establishing a baseline response to the electrical field stimulation, HD was added to the buffer at concentrations ranging from 0.01% w/w to 1% w/w, and the impact on muscle contractile force was recorded over time at the frequency of 150 Hz. Additionally, muscles were subjected to varying frequencies of electrical stimulation to evaluate the frequency-dependent effects of HD.
This subsequent study was aimed to elucidate the specific effects of HD on isolated muscle tissue from mice, to quantify its potential use as a muscle relaxant. The study's design allowed for the controlled assessment of muscle contractility in a physiological buffer, minimizing external variables present in in vivo models. Muscle Isolation: The mouse extensor digitorum longus muscles were carefully dissected and mounted in a tissue bath super-fused with oxygenated physiological buffer, ensuring tissue viability throughout the experiment (FIG. 4). Baseline Measurement: Initial contractile responses were established via electrical stimulation at various frequencies, setting a comparative baseline for subsequent HD application effects. HD Application: Differing concentrations of HD (ranging from 0.01% to 1%) were introduced to the buffer. The muscle's contractile force (amplitude, which is the maximum contractile force) was determined to assess HD's concentration-dependent effects at a fixed frequency of 150 Hz (FIG. 6). Stimulation Frequency Adjustment: To explore the frequency-dependent nature of HD's action, muscles underwent varied frequencies of electrical stimulation at a fixed concentration of 0.5% of HD. This protocol aimed to simulate conditions of sporadic muscle spasms.

hairless mice = assay: Rotarod performance study in hairless mice; type: in vivo; details: 5% w/w HD topical
Experimental: FIG. 7 is an illustration of a Rota Rod apparatus in the present disclosure. Once the mice were trained, the rod was rotated at a constant speed of 20 rpm. Then the mice were placed on the rotating rod and length of time they could stay on the rotating rod was measured in seconds.
The Rotarod study was to investigate the skeletal muscle relaxant effects of HD, specifically its impact on motor coordination and balance in hairless mice. The study was structured to assess both the kinetics of HD's effect over time and its efficacy in inducing muscle relaxation. Efficacy of HD was determined post-treatment at intervals of 15, 30, 60, 75, 90 minutes, and another to evaluate the efficacy, particularly noting the peak effect at 30 minutes post-application. Control and Treatment Groups: Each stage included a control group receiving vehicle (Aloe Vera Gel) and a test group treated with HD, 5% w/w HD (0.5 g) in the vehicle (9.5 g Aloe Vera Gel), prepared right before the study. The topical treatment was applied to the thighs of all four limbs for each mouse.

hind limb muscle = assay: Rat hind limb muscle twitch study; type: in vivo, Sprague-Dawley rats
Experimental: FIG. 1 is a schematic diagram of a validated muscle twitch experimental set-up in the present disclosure. Here anesthetized Sprague-Dawley rats were prepared for muscle contraction assessment of their hindlimbs. The hind limbs were shaved and secured at the knee and ankle joints to prevent movement. The distal tendon of the targeted muscle was connected to a high-sensitivity force transducer to measure contractile force with precision. Electrical stimulation was delivered via electrodes positioned on the sciatic nerve to evoke muscle contractions. Vehicle (control study) or 5% w/w of HD was topically applied to the dermal area corresponding to the muscle group under study, ensuring proximity for local diffusion and effect.
A study was performed to evaluate the effects of HD on muscle contractility using a validated in vivo rat model. The experimental setup was meticulously designed to measure the contractile force of the hind limb muscle in response to electrical stimulation of the sciatic nerve, providing a quantitative assessment of muscle relaxation and contraction dynamics in the presence of HD. Anesthetized Sprague-Dawley rats were used for this study, ensuring minimal variability in response to HD application. Hind limbs were shaved and then immobilized at the knee and ankle joints to isolate the effect of the targeted muscle group. The distal tendon of the targeted muscle was connected to a high-sensitivity force transducer for accurate measurement of contractile force. An electrical stimulation was applied via electrodes strategically placed on the sciatic nerve, designed to evoke muscle contractions with controlled frequency to determine amplitude, and duration parameters. A specific concentration of 5% w/w of HD in lubricating lotion, prepared on the same day, was topically applied to the skin overlaying the muscle group under study and the control group received a vehicle (lubricating lotion) treatment under identical conditions.

CCCCC(O)CO (stereo not shown) [HD, 1,2-hexanediol]
inhibitory effect on muscle contraction ([1]; 0.01% HD in buffer, 150 Hz): No significant inhibitory effect; also recorded: minimal effects | reduction in contractile force ([1]; 0.1% HD in buffer, 150 Hz, vs vehicle controls): ~44% | frequency-dependent decrease in torque generation (force-frequency relationship) ([1]; 0.5% HD, varied stimulus frequencies, vs vehicle, n=5): inhibition is more complete at higher frequencies of stimulation; also recorded: more significant inhibitory effect | recovery of mice from the muscle relaxant effect (safety) (hairless mice): all mice recovered | time spent on Rota Rod (hairless mice; 30 and 60 minutes post treatment, 20 rpm, vehicle 60 seconds): significant decrease | recovery from the muscle relaxant effect (hairless mice; by 75 minutes): recovery trend | time of most notable muscle relaxant activity post-treatment (hairless mice; preliminary experiments (data not shown)): 30 min | duration of muscle contraction (hind limb muscle; 5% w/w HD topical vs vehicle, p<0.05): statistically significant reduction | mean percentage decline in force output from initial peak contraction (hind limb muscle; 5% w/w HD topical, compared to vehicle group): quantitatively significant | ability to maintain tetanic contraction throughout the stimulus period (hind limb muscle; 5% w/w HD topical, electrical stimulation at 150 Hz): unable to maintain tetanic contraction; also recorded: failing to maintain tetanic tension
